Experimental data published in patent publication US20080038267A1, “Treatment Of Cancer” (NEUTEC PHARMA LIMITED, priority 2004, published 2008).
Converted amounts (≈) assume the structure as drawn. Like-named read-outs stand apart in the source and are kept apart here.

Key:
[1] = system: HT29 cells; assay: Cell Titer Blue viability, drugs without Mycograb or Mycograb alone, HT29 cells; assay type: cell-based, human; details: for IC50: 5-FU tested plus 1 mg/ml Folinic acid
Protocol: (§1) Viable cells reduce resazurin to resorufin (pink).
(§2) Cell growth was evaluated as described above.
Human colon adenocarcinoma grade 11 cell line HT29, was obtained from ECACC (ECACC number 91072201).
The cell lines were split and the cells counted. […] The next day, the cells were observed under phase contrast microscopy to ensure they had adhered to the plates and the supernatant medium removed by aspiration. 100 μl of fresh complete RPMI medium containing increasing two fold concentrations of study drug (5-FU 4.5-2400 μg/ml plus 1 mg/ml Folinic acid or Oxaliplatin 1-500 μg/ml) or medium alone (Media+2.5% DMSO for 5-FU control) was then added to the wells.

[2] = system: HT29 cells; assay: Checkerboard of Mycograb versus 5-FU/Folinic acid and/or Oxaliplatin, median effect analysis (CI), HT29 cells; assay type: cell-based, human; details: for Dm: median effect analysis (Calcusyn)
Excerpt: as §1
CI values are shown for Fa50.
(§3) The cell lines were split and the cells counted.
as §3

[3] = system: Hsp 90 in multi-chaperone complexes derived from tumour cells; details: higher than Hsp90 from normal cells (latent uncomplexed state); cited from earlier work
[4] = system: MCF7 cells; assay: Cell Titer Blue viability, single drug, MCF7 cells; assay type: cell-based, human
Protocol: (§4) Viable cells reduce resazurin to resorufin (pink). Cell growth was evaluated as described above. […] The cell lines were split and cells counted. […] The next day, the cells were observed under phase contrast microscopy to ensure they had adhered to the plates and the supernatant medium removed by aspiration.

[5] = system: HS578T cells; assay: Cell Titer Blue viability, single drug, HS578T cells; assay type: cell-based, human
Protocol: as §4

[6] = system: K562 cells; assay: Cell Titer Blue viability, single drug, K562 cells
Protocol: as §1, §2
K562 was established from pleural effusion of person with chronic myelogenous leukaemia in terminal blast crisis. […] The line used in these experiments was the K562B. […] K562B has been compared to K562A and K562 C, with respect to growth kinetics, cell surface protein markers, surface antigens, cytogenetics and hemoglobin production.
(§5) The cell lines were counted. […] Fresh medium containing either two-fold increasing concentrations of Mycograb® (1.5-200 μg/ml), or medium alone was then added to the wells. The plate was returned to the incubator for 48 hours following which the cell titre blue assay was carried out, or viable counts were determined using a haemocytometer.
(§6) The cell lines were counted. […] The plates were returned to the incubator for 48 hours following which cell titre blue assays were carried out.

[7] = system: KU-812 cells; assay: Cell Titer Blue viability, single drug, KU-812 cells; details: Mycograb on its own at 50 μg/ml
Protocol: as §1, §2, §5, §6

[8] = K562 cells, single drug, 48 hour incubation
[9] = Homo sapiens, MCF7 cells, single drug, 48 hour incubation, read-out: IC50
[10] = Homo sapiens, Hs-578T, HS578T cells, single drug, 48 hour incubation, read-out: IC50

Q: Which IC50 ([1]; Homo sapiens, HT-29, 48 hours, read-out: IC50) does the source give for `O=c1[nH]cc(F)c(=O)[nH]1` [5-FU, 5-Fluorouracil] here?
A: 150 µg/mL

Q: What about the IC50 ([2]; Homo sapiens, HT-29, median effect analysis (Calcusyn), read-out: Dm) of the same molecule?
A: 297 µg/mL

Q: With `C=CCNC1=C2C[C@@H](C)C[C@H](OC)[C@H](O)[C@@H](C)/C=C(\C)[C@H](OC(N)=O)[C@@H](OC)/C=C\C=C(/C)C(=O)NC(=CC1=O)C2=O` [17AAG, 17-allylamino, 17-desmethoxygeldanamycin] as the molecule, how does the “binding affinity for 17AAG, Hsp 90 in tumour-cell multi-chaperone complexes versus Hsp90 from normal cells” value [3] read?
A: 100 fold

Q: Which IC50 ([4]; MCF7 cells, single drug, 48 hour incubation) does the source give for `N.N.[Cl][Pt][Cl]` [Cisplatin] here?
A: 6 µg/mL

Q: And the IC50 ([5]; HS578T cells, single drug, 48 hour incubation)?
A: 12.5 µg/mL

Q: What about the IC50 [6, 8] of the same molecule?
A: 12.5 µg/mL

Q: For `COc1cccc2c1C(=O)c1c(O)c3c(c(O)c1C2=O)C[C@@](O)(C(C)=O)C[C@@H]3O[C@H]1C[C@H](N)[C@H](O)[C@H](C)O1` [Daunorubicin], which IC50 ([4]; Homo sapiens, MCF7, 48 h) is on record?
A: 1 µg/mL (≈ 1.9 µM)

Q: And the IC50 ([5]; Homo sapiens, Hs-578T, 48 h)?
A: 1 µg/mL (≈ 1.9 µM)

Q: And the IC50 ([6]; Homo sapiens, K562, 48 h)?
A: 0.75 µg/mL (≈ 1.42 µM)

Q: For `CC(=O)O[C@@]12CO[C@@H]1C[C@H](O)[C@@]1(C)C(=O)[C@H](O)C3=C(C)[C@@H](OC(=O)[C@H](O)[C@@H](NC(=O)OC(C)(C)C)c4ccccc4)C[C@@](O)([C@@H](OC(=O)c4ccccc4)[C@H]21)C3(C)C` [Docetaxel], which IC50 [4, 9] is on record?
A: 225 µg/mL (≈ 279 µM)

Q: What about the IC50 [5, 10] of the same molecule?
A: 50 µg/mL (≈ 61.9 µM)

Q: And the IC50 ([6]; Homo sapiens, K562, 48 h)?
A: 70 µg/mL (≈ 86.6 µM)

Q: For `COc1cccc2c1C(=O)c1c(O)c3c(c(O)c1C2=O)C[C@@](O)(C(=O)CO)C[C@@H]3O[C@H]1C[C@H](N)[C@H](O)[C@H](C)O1` [Doxorubicin], which IC50 [4, 9] is on record?
A: 1.75 µg/mL (≈ 3.22 µM)

Q: What about the IC50 [5, 10] of the same molecule?
A: 1 µg/mL (≈ 1.84 µM)

Q: What about the IC50 ([6]; Homo sapiens, K562, 48 h) of the same molecule?
A: 1 µg/mL (≈ 1.84 µM)

Q: With `NC(=O)NO` [Hydroxyurea] as the molecule, how does the IC50 [6, 8] read?
A: never reached

Q: With `O=C1[O][Pt]2([NH][C@@H]3CCCC[C@H]3[NH]2)[O]C1=O` [Oxaliplatin] as the molecule, how does the IC50 ([1]; 48 hours) read?
A: 16 µg/mL

Q: What about the Dm [2] of the same molecule?
A: 27.77

Q: With `CC(=O)O[C@H]1C(=O)[C@@]2(C)[C@H]([C@H](OC(=O)c3ccccc3)[C@]3(O)C[C@H](OC(=O)[C@H](O)[C@@H](NC(=O)c4ccccc4)c4ccccc4)C(C)=C1C3(C)C)[C@]1(OC(C)=O)CO[C@@H]1C[C@@H]2O` [Paclitaxel] as the molecule, how does the IC50 [4, 9] read?
A: 225 µg/mL (≈ 263 µM)

Q: And the IC50 ([6]; Homo sapiens, K562, 48 h)?
A: 32 µg/mL (≈ 37.5 µM)

B1: Mycograb: anti-Hsp90 antibody disclosed in WO 01/76627, sequence of SEQ ID NO: 2, specific for epitope of peptide SEQ ID NO: 1 (protein)
chain: HMAEVQLVESGAEVKKPGESLRISCKGSGCIISSYWISWVRQMPGKGLEWMGKIDPGDSYINYSPSFQGHVTISADKSINTAYLQWNSLKASDTAMYYCARGGRDFGDSFDYWGQGTLVTVSSGGGGSGGGGSGGGGSDVVMTQSPSFLSAFVGDRITITCRASSGISRYLAWYQQAPGKAPKLLIYAASTLQTGVPSRFSGSGSGTEFTLTINSLQPEDFATYYCQHLNSYPLTFGGGTKVDIKRAA
Q: Which results are given for B1?
A: sensitivity of cell line to Mycograb alone ([5]; HS578T cells, increasing concentrations up to 400 mg/l): insensitive; reduction in cell viability ([6]; K562 cells, Mycograb on its own at 12.5 μg/ml): 40%; reduction in cell viability [7]: 40%; reduction in cell viability ([1]; Mycograb on its own at 125 μg/ml): 50%; Dm [2]: 96.47
